Data on 18 compounds can be found in patent US9376387B2 (priority 2013, dated 2016).

Molecules are shown by their SMILES. Read-outs that look alike come from different tables or passages of the source.

Assay [1] concerns the target T1, hAChE (human erythrocyte membranes as a AChE source) (Homo sapiens, UniProt P22303).
T1 construct: human erythrocyte membranes as a AChE source; from tissue; host or cells: human erythrocyte membranes
The assay can be described thus: acetylcholinesterase (AChE) activity, modified Ellman method. Type of assay: biochemical. The settings on record: acetylthiocholine iodide substrate, pH=7.4. On the technique in general: DTNB colorimetry detects thiols as they appear.

The target of a further assay is EqBuChE (Equus caballus, UniProt P81908). Briefly: biochemical.
Sequence of EqBuChE (P81908 whole entry): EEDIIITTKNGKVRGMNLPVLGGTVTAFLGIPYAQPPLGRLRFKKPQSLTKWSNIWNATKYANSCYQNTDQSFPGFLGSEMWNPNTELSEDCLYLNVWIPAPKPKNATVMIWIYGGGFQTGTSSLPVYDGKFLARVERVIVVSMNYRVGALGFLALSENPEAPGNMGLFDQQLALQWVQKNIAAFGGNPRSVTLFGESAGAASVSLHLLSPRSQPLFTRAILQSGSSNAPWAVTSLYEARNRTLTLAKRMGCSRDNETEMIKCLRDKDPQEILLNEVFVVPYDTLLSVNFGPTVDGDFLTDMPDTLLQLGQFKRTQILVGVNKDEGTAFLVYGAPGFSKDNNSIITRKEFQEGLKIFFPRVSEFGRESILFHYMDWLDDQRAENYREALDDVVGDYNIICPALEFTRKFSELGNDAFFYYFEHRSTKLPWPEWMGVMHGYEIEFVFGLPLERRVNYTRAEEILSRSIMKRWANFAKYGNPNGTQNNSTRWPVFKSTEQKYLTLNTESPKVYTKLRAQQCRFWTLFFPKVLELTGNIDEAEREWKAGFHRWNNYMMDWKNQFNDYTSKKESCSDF
[2] abbreviates: hAChE IC50, modified Ellman method.

T1 sequence (P22303 32-617 isoform P22303-2 limits assumed): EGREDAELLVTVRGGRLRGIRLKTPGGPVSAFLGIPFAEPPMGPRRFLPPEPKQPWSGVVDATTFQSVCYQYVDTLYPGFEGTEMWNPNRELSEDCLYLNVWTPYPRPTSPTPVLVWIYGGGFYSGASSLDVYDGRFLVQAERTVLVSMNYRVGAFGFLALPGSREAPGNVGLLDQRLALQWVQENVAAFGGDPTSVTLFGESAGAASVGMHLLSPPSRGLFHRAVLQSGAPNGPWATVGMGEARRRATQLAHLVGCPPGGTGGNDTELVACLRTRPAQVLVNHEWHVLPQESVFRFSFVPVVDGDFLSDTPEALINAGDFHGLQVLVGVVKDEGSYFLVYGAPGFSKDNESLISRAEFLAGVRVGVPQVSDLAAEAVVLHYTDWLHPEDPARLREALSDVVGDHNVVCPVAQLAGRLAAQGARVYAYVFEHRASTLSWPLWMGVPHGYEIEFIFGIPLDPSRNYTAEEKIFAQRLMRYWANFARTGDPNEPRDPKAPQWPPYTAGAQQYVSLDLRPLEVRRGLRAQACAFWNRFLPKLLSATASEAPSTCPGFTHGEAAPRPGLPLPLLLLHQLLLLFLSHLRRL

What is called IC50 is the concentration that inhibits the measured activity by half. Regarding `COc1ccc2c(c1)CCC(Cc1cc[n+](Cc3ccccc3[N+](=O)[O-])cc1C(C)=O)C2=O` (stereo not drawn) [Compound 125, 2-[[3-acetyl-1-[(2-nitrophenyl)methyl]pyridin-1-ium-4-yl]methyl]-6-methoxy-tetralin-1-one bromide], the IC50 in assay [1] (setting [2]) stood at 57.7 nM; against EqBuChE (EqBuChE IC50) it was 592 nM.
For the compound `COc1ccc2c(c1)CCC(Cc1cc[n+](Cc3ccccc3Cl)cc1C(C)=O)C2=O` (stereo not drawn) [Compound 126, 2-[[3-acetyl-1-[(2-chlorophenyl)methyl]pyridin-1-ium-4-yl]methyl]-6-methoxy-tetralin-1-one bromide], the IC50 in assay [1] (setting [2]) turned out to be 29 nM; on EqBuChE (EqBuChE IC50) it was 256 nM.
As to `COc1ccc2c(c1)CCC(Cc1cc[n+](Cc3ccccc3F)cc1C(C)=O)C2=O` (stereo not drawn) [Compound 127, 2-[[3-acetyl-1-[(2-fluorophenyl)methyl]pyridin-1-ium-4-yl]methyl]-6-methoxy-tetralin-1-one bromide], the IC50 in assay [1] (setting [2]) was 43 nM; against EqBuChE (EqBuChE IC50), 489 nM.
In the case of `COc1ccc2c(c1)CCC(Cc1cc[n+](Cc3cccc(F)c3)cc1C(C)=O)C2=O` (stereo not drawn) [Compound 128, 2-[[3-acetyl-1-[(3-fluorophenyl)methyl]pyridin-1-ium-4-yl]methyl]-6-methoxy-tetralin-1-one bromide], the IC50 was 55 nM in assay [1] (setting [2]) and 412 nM against EqBuChE (EqBuChE IC50).
With `COc1ccc2c(c1)CCC(Cc1cc[n+](Cc3ccc(F)cc3)cc1C(C)=O)C2=O` (stereo not drawn) [Compound 129, 2-[[3-acetyl-1-[(4-fluorophenyl)methyl]pyridin-1-ium-4-yl]methyl]-6-methoxy-tetralin-1-one bromide], the IC50 was found to be 141 nM in assay [1] (setting [2]) and 171 nM against EqBuChE (EqBuChE IC50).
The matching figures for `COc1ccc2c(c1)CCC(Cc1cc[n+](Cc3ccc(C)cc3)cc1C(C)=O)C2=O` (stereo not drawn) [Compound 130, 2-[[3-acetyl-1-(p-tolylmethyl)pyridin-1-ium-4-yl]methyl]-6-methoxy-tetralin-1-one bromide]: 556 nM and 4140 nM.
`COc1ccc2c(c1)CCC(Cc1cc[n+](Cc3ccc(Cl)cc3)cc1C(C)=O)C2=O` (stereo not drawn) [Compound 131, 2-[[3-acetyl-1-[(4-chlorophenyl)methyl]pyridin-1-ium-4-yl]methyl]-6-methoxy-tetralin-1-one bromide]: the values for the IC50 (in assay [1] (setting [2]); against EqBuChE (EqBuChE IC50)) were 568 nM and 6090 nM, respectively.
In the case of `COc1cc2c(cc1OC)C(=O)C(Cc1cc[n+](Cc3ccccc3)cc1F)CC2` (stereo not drawn) [Compound 133, 2[(1-benzyl-3-fluoro-pyridin-1-ium-4-yl)methyl]-6,7-dimethoxy-tetralin-1-one bromide], the IC50 worked out at 9.1 nM in assay [1] (setting [2]) and 508 nM on EqBuChE (EqBuChE IC50).
Consider `COc1ccc2c(c1)CC(Cc1cc[n+](Cc3ccccc3C)cc1C(C)=O)C2=O` (stereo not drawn) [Compound 138, 2-[[3-acetyl-1-(o-tolylmethyl)pyridin-1-ium-4-yl]methyl]-5-methoxy-indan-1-one bromide], for which the IC50 in assay [1] (setting [2]) stood at 30 nM; against EqBuChE (EqBuChE IC50) it was 2990 nM.
Turning to `CC(=O)c1c[n+](Cc2ccccc2C)ccc1CC1Cc2cc3c(cc2C1=O)OCO3` (stereo not drawn) [Compound 139, 6-[[3-acetyl-1-(o-tolylmethyl)pyridin-1-ium-4-yl]methyl]-5,6-dihydrocyclopenta[f][1,3]benzodioxol-7-one bromide], the IC50 in assay [1] (setting [2]) came out at 60 nM; against EqBuChE (EqBuChE IC50), 1620 nM.
In the case of `COc1cc2c(cc1OC)C(=O)C(Cc1cc[n+](Cc3ccccc3Cl)cc1Br)C2` (stereo not drawn) [Compound 140, 2-[[3-bromo-1-[(2-chlorophenyl)methyl]pyridin-1-ium-4-yl]methyl]-5,6-dimethoxy-indan-1-one bromide], the figures for the IC50 (in assay [1] (setting [2]); against EqBuChE (EqBuChE IC50)) were 0.255 nM and 984 nM, respectively.
Turning to `COc1cc2c(cc1OC)C(=O)C(Cc1cc[n+](Cc3ccccc3C)cc1Br)C2` (stereo not drawn) [Compound 141, 2-[[3-bromo-1-(o-tolylmethyl)pyridin-1-ium-4-yl]methyl]-5,6-dimethoxy-indan-1-one bromide], the 50% inhibitory concentration (IC50) in assay [1] (setting [2]) is 0.053 nM; on EqBuChE (EqBuChE IC50), 2290 nM.
As for `COc1cc2c(cc1OC)C(=O)C(Cc1cc[n+](Cc3cccc(Cl)c3)cc1C(C)=O)C2` (stereo not drawn) [Compound 144, 2-[[3-acetyl-1-[(3-chlorophenyl)methyl]pyridin-1-ium-4-yl]methyl]-5,6-dimethoxy-indan-1-one bromide], the IC50 in assay [1] (setting [2]) was determined as 3.2 nM; against EqBuChE (EqBuChE IC50) it was 3340 nM.
`COc1cc2c(cc1OC)C(=O)C(Cc1cc[n+](Cc3ccccc3)cc1Br)C2` (stereo not drawn) [Compound 145, 2-[(1-benzyl-3-bromo-pyridin-1-ium-4-yl)methyl]-5,6-dimethoxy-indan-1-one bromide]: the IC50 in assay [1] (modified Ellman method, read-out: hAChE IC50) is 0.36 nM; on EqBuChE (read-out: EqBuChE IC50), 1790 nM.
Consider `COc1cc2c(cc1OC)C(=O)C(Cc1cc[n+](Cc3cccc(C)c3)cc1Br)C2` (stereo not drawn) [Compound 146, 2-[[3-bromo-1-(m-tolylmethyl)pyridin-1-ium-4-yl]methyl]-5,6-dimethoxy-indan-1-one bromide], for which the concentration for half-maximal inhibition (IC50) came to 0.465 nM in assay [1] (setting [2]) and 3860 nM at EqBuChE (EqBuChE IC50).
As to `CC(=O)c1c[n+](Cc2ccccc2C)ccc1CC1Cc2cc(C)c(C)cc2C1=O` (stereo not drawn) [Compound 152, 2-[[3-acetyl-1-(o-tolylmethyl)pyridin-1-ium-4-yl]methyl]-5,6-dimethyl-indan-1-one bromide], the results for the IC50 (in assay [1] (setting [2]); against EqBuChE (EqBuChE IC50)) were 37.7 nM and 262 nM, respectively.
For `COc1cc2c(cc1OC)C(=O)C(CC1C=CN(Cc3ccccc3)C=C1C(C)=O)CC2` (stereo not drawn) [Compound 162, 2-[(3-acetyl-1-benzyl-4H-pyridin-4-yl)methyl]-6,7-dimethoxy-tetralin-1-one], in that order: 415 nM and 3970 nM.
The matching figures for `CC(=O)C1=CN(Cc2ccccc2C)C=CC1CC1Cc2cc(C)c(C)cc2C1=O` (stereo not drawn) [Compound 166, 2-[[3-acetyl-1-(o-tolylmethyl)-4H-pyridin-4-yl]methyl]-5,6-dimethyl-indan-1-one]: 653 nM and 1260 nM.
